One block for each molecule: values may come before it.
Columns and labels:
Type in all cases: cell-based
EFO-27 = experiment: Cell proliferation CellTiterGlo Ex.2; settings: Homo sapiens; EFO-27 (Ovary), 72 h
Outline: (§1)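 Cells were seeded, incubated overnight at 37 °C, then dosed at 10, 3, 1, 0.3, 0.1, 0.03, 0.01 and 0.003 μM for 72 h (5% or 10% CO2). CellTiterGlo luminescence gave percent viability relative to 0.10% DMSO (high) and 10 μM staurosporine (low) controls.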

HT-29 = experiment: Cell proliferation CellTiterGlo Ex.2; settings: Homo sapiens; HT-29 (Colon), 72 h
Outline: as §1

MCF-7 = experiment: Cell proliferation CellTiterGlo Ex.2; settings: Homo sapiens, MCF7; MCF-7 (Breast), 72 h
Outline: as §1

OPM-2 = experiment: Cell proliferation CellTiterGlo Ex.2; settings: Homo sapiens; OPM-2 (Blood), 72 h
Outline: as §1

SK-N-SH = experiment: Cell proliferation CellTiterGlo Ex.2; settings: Homo sapiens; SK-N-SH (Brain), 72 h
Outline: as §1

SW620 = experiment: Cell proliferation CellTiterGlo Ex.2; settings: Homo sapiens, SW-620; SW620 (Colon), 72 h
Outline: as §1

U-937 = experiment: Cell proliferation CellTiterGlo Ex.2; settings: Homo sapiens; U-937 (Blood), 72 h
Outline: as §1

5637 = experiment: Cell proliferation Ex.3
Procedure: (§2) A dose response relationship on cell proliferation was assessed for Compound 13 on 140 tumor cell lines. […] Cells were cultured in the appropriate media. For the assays, cells were seeded in white cell culture-treated flat and clear bottom multiwell plates and incubated at 37° C. overnight before compound was added. […] on the medium, cell plates were equilibrated to room temperature for one hour, CellTiterGlo reagent (Promega) was added and luminescence was measured approximately an hour later using a luminometer. Raw data were converted into percent cell viability relative to the high and low control, which were set to 10000 and 000, respectively.

C33A = experiment: Cell proliferation Ex.3; settings: Homo sapiens, C-33-A
Procedure: as §2

COLO678 = experiment: Cell proliferation Ex.3; settings: Homo sapiens, COLO-678
Procedure: as §2

DU145 = experiment: Cell proliferation Ex.3; settings: Homo sapiens, DU-145
Procedure: as §2

HCT15 = experiment: Cell proliferation Ex.3; settings: Homo sapiens, HCT-15
Procedure: as §2

KASUMI = experiment: Cell proliferation Ex.3
Procedure: as §2

MIAPACA2 = experiment: Cell proliferation Ex.3; settings: Homo sapiens, MIA PaCa-2
Procedure: as §2

MT3 = experiment: Cell proliferation Ex.3; settings: MT-3
Procedure: as §2

NCIH82 = experiment: Cell proliferation Ex.3; settings: Homo sapiens, NCI-H82
Procedure: as §2

RD = experiment: Cell proliferation Ex.3; settings: Homo sapiens
Procedure: as §2

SKMEL5 = experiment: Cell proliferation Ex.3; settings: Homo sapiens, SK-MEL-5
Procedure: as §2

WSU-NHL = experiment: Cell proliferation Ex.3; settings: Homo sapiens
Procedure: as §2

CASKI = experiment: Cell proliferation Ex.3; settings: Homo sapiens, Ca-Ski
Procedure: (§3) A dose response relationship on cell proliferation was assessed for Compound 13 on 140 tumor cell lines. […] Cells were cultured in the appropriate media. For the assays, cells were seeded in white cell culture-treated flat and clear bottom multiwell plates and incubated at 37° C. overnight before compound was added. […] dependent on the medium, cell plates were equilibrated to room temperature for one hour, CellTiterGlo reagent (Promega) was added and luminescence was measured approximately an hour later using a luminometer. Raw data were converted into percent cell viability relative to the high and low control, which were set to 10000 and 000, respectively.

MINO = experiment: Cell proliferation Ex.3; settings: Homo sapiens
Procedure: as §3

SKNSH = experiment: Cell proliferation Ex.3; settings: Homo sapiens, SK-N-SH
Procedure: as §3

PBMC = experiment: Cell proliferation Ex.3

SMILES: C#C[C@]1(CO)O[C@@H](n2cnc3c(=O)[nH]c(N)nc32)C[C@@H]1O [compound 13]
IC50 (EFO-27): 9.9 µM
IC50 (HT-29): > 10 µM
IC50 (MCF-7): > 10 µM
IC50 (OPM-2): > 10 µM
IC50 (SK-N-SH): 6.47 µM
IC50 (SW620): 7.21 µM
IC50 (U-937): 1.12 µM

IC50 (COLO678; COLO678, 72 h): > 10 µM
IC50 (COLO678; COLO678, 120 h): > 10 µM
IC50 (COLO678; COLO678, 168 h): > 10 µM
IC50 (DU145; DU145, 72 h): > 10 µM
IC50 (DU145; DU145, 120 h): > 10 µM
IC50 (DU145; DU145, 168 h): > 10 µM
IC50 (HCT15; HCT15, 72 h): > 10 µM
IC50 (HCT15; HCT15, 120 h): > 10 µM
IC50 (HCT15; HCT15, 168 h): > 10 µM
IC50 (MIAPACA2; MIAPACA2, 72 h): > 10 µM
IC50 (MIAPACA2; MIAPACA2, 120 h): > 10 µM
IC50 (MIAPACA2; MIAPACA2, 168 h): > 10 µM
IC50 (SKMEL5; SKMEL5, 72 h): > 10 µM
IC50 (SKMEL5; SKMEL5, 120 h): > 10 µM
IC50 (SKMEL5; SKMEL5, 168 h): > 10 µM
IC50 (SKNSH; 72 h): > 10 µM
IC50 (SKNSH; 120 h): > 10 µM
IC50 (SKNSH; 168 h): > 10 µM
SMILES: C#C[C@]1(CO)O[C@@H](n2cc(F)c(N)nc2=O)C[C@@H]1O [compound 9]
IC50 (5637; 5637, 72 h): > 10 µM
IC50 (5637; 5637, 120 h): > 10 µM
IC50 (5637; 5637, 168 h): > 10 µM
IC50 (C33A; 72 h): > 10 µM
IC50 (C33A; 120 h): 2.93 µM
IC50 (C33A; 168 h): 3.07 µM
IC50 (KASUMI; 72 h): > 10 µM
IC50 (KASUMI; 120 h): > 10 µM
IC50 (KASUMI; 168 h): > 10 µM
IC50 (MT3; MT3, 72 h): > 10 µM
IC50 (MT3; MT3, 120 h): 3.04 µM
IC50 (MT3; MT3, 168 h): > 10 µM
IC50 (NCIH82; NCIH82, 72 h): > 10 µM
IC50 (NCIH82; NCIH82, 120 h): 9.1 µM
IC50 (NCIH82; NCIH82, 168 h): > 10 µM
IC50 (RD; 72 h): > 10 µM
IC50 (RD; 120 h): > 10 µM
IC50 (RD; 168 h): > 10 µM
IC50 (WSU-NHL; 72 h): 3.01 µM
IC50 (WSU-NHL; 120 h): 0.42 µM
IC50 (WSU-NHL; 168 h): 0.87 µM
IC50 (CASKI; 72 h): > 10 µM
IC50 (CASKI; 120 h): > 10 µM
IC50 (CASKI; 168 h): > 10 µM
IC50 (MINO; 72 h): 0.34 µM
IC50 (MINO; 120 h): 0.049 µM
IC50 (MINO; 168 h): 0.065 µM
IC50 (PBMC; 72 h): > 10 µM
IC50 (PBMC; 120 h): > 10 µM
IC50 (PBMC; 168 h): > 10 µM

Reference: patent US20230293526A1, “METHOD FOR TREATING CANCER WITH A REVERSE TRANSCRIPTASE INHIBITOR” (PrimeFour Therapeutics, Inc., priority 2020, published 2023)
